This is an account of results in patent US6254883A, “Composition for transdermal delivery of drugs” (Novagent Oy, priority 1996, dated 2001).

Data set [1] is described as follows: In vitro release of salicylate from anionic ion-exchange fiber through skin (epidermis) in Franz diffusion cells (experiment 3). It is filed as in vitro ADME. From the text: (§1) In the experiments below a woven cloth was used comprising a cotton textile fiber (RAIEX AK II) in which […] amine groups (-N^+ (CH3)3) had been grafted to the polysaccaride molecules. The surface weight of the cloth was 200 g/m^2. The thickness of the fiber was 30-40 μm, strength 10-20 kg s/mm^2, break stretch 15-40% and the ion exchanger capacity 3.3 mekv/g.
(§2) For release studies circular discs (diameter 25 mm) were cut from the above mentioned anionic ion-exchange fiber cloth. The fiber discs were washed by 5% NaHCO3 solution in a dropfunnel until all chloride was exchanged (tested by silver nitrate in HNO3 solution). […] The discs containing salicylate were dried in 37° C.
(§3) Drug release in vitro from the fiber discs at 37° C. was tested in Franz diffusion cells (Crown Glass Co. Inc., Somerville, N.J.) (FIG. 1). In the figure reference number 11 denotes the donor compartment, 14 receiver compartment, 15 thermostat, 16 stirring rod and 12 sample tube. […] The dissolution medium was pH 7.4 phosphate buffer saline (PBS, 143 mM, μ=0.15 (μ=ionic strength)) in experiment 1 and pH 7.4 phosphate buffer (6 mM, […]) in experiments 2 and 3. To assess the effect of the skin on drug release (experiment 3), a piece of epidermis 13 was placed between the fiber disc and buffer solution. At fixed times, samples of 250 μl were withdrawn and the drug concentration in the samples were determined by using HPLC (Beckman System Gold, Beckman Instrument, San Ramon, Calif.) with a Supelcosil LC-18-DB column (5 μm, 150×4.6 mm) (Supelco Inc., Rohm and Haab Co., Bellefonte, Pa.). The mobile phase was a binary mixture of methanol (40% v/v) and pH 7.0 phosphate buffer (60%). The detection wavelenght was 298 nm, and the flow rate of 1.0 ml/min, the retention time was 2.6 min.

For data set [2] the following is noted: pH 7.0 phosphate buffer (200 mM) containing 6.27 g/l NaCl; donor 50 μg/ml; cited from earlier work.
The nature of data set [3]: In vitro release of salicylate from anionic ion-exchange fiber discs in Franz diffusion cells, 37° C. (experiments 1 and 2).
Source text: as §1, §2, §3

The conditions of data set [4]: buffered solution pH=7; 30 mg tacrine per gram of fiber. The procedure:
An acidic fiber ion exchanger was treated with this solution, wherein the following reaction occurred:
wherein R is the back bone of the fiber ion exchanger (polypropylene).
The ion exchange performance of this fiber ion-exchanger was tested in a Franz diffusion cell (see FIG. 1) to
a buffered solution (pH=7), and t

For data set [5] the following is noted: phosphate buffer 6 mM, pH 7,4. The procedure:
The cationic fiber discs were washed in 5% HCl solution in a dropfunnel until all sodium was exchanged.
Drug release from the fiber discs was tested in vitro in Franz diffusion cells (Crown Glass Co., Somerville, N.J.) at 37 C. The fiber discs were placed in the diffusion cells so that one side of the cationic ion-exchange fiber was exposed to the dissolution medium (phosphate-buffer6 mM, pH 7,4). Surface area of the fiber discs exposed to the buffer was 0,64 cm^2. […] The column used was Supelcosil LC-18-DB (5 m, 150 mm×4,6 mm), and the mobile phase included 22% of acetonitrile, 1% of triethylamine, and 77% of phosphate buffer at pH 6,5. Detection wavelength was 240 nm and flow rate was 1,0 ml per min.

Data set [6] is described as follows: Tacrine permeation across human skin in vitro, Side-by-Side diffusion chambers (Example 3). Type of data set: in vitro ADME.
A short description of data set [7]: Delivery of tacrine from acidic fiber ion exchanger to blood through skin, Franz diffusion cell (Example 2). Type of data set: in vitro ADME. As to conditions: 30 mg tacrine per gram of fiber.
For data set [8] the following is noted: cited from earlier work.
For data set [9] the following is noted: Tacrine (-HCl), cited from earlier work.

SMILES strings stand for the structures. “Also recorded” adds a separate entry of the source.

With `O=C([O-])c1ccccc1O.[Na+]` [Sodium salicylate, sodium salicylate], the “release kinetics through skin (in words)” value in [1] (after initial lag time) is reported as “followed zero-order kinetic after initial lag time”. For the same compound, in data set [1] (with skin), the “burst effect with skin (in words)” value is reported as “the burst effect disappeared” and the “lag time before steady state release” value was “about 2 h”. The “in vitro permeability through skin” value in [2] is “about 0.34 μg/cm^2 /h”. The “duration of nearly constant / controlled release (in words)” value in data set [3] (anionic ion-exchange fiber, in vitro) was “two days; also recorded: several days”. In [3] (experiment 1, PBS 143 mM), the “duration of initial burst” value is less than 6 h. The “release rate after initial burst (nearly constant)” value in data set [3] (experiment 1, PBS 143 mM, pH 7.4, after initial burst) is on record as 20-30 μg/h/cm^2. Also, in data set [3] (experiment 1, PBS 143 mM, pH 7.4, initial burst), the “release rate in the beginning of the experiment (burst)” value is recorded as “about 350 μg/h/cm^2”. The “duration of constant release phase” value in data set [3] (experiment 2, phosphate buffer 6 mM, μ=0.20) is “about 50 h”. The “rate of salicylate release during the constant release phase” value in [3] (experiment 2, phosphate buffer 6 mM, μ=0.20, pH 7.4) was “about 60 μg/h/cm^2”. Also, the “release rate and released amount, phosphate buffer vs PBS (in words)” value in [3] (phosphate buffer (6 mM, μ=0.20) compared with PBS (143 mM, μ=0.15)) was “higher in phosphate buffer (6 mM, μ=0.20) than in PBS solution (143 mM, μ=0.15)”.

For `Nc1c2c(nc3ccccc13)CCCC2` [tacrine, 9-amino-1,2,3,4-tetrahydroacridine], in data set [4], the “amount of tacrine delivered to buffered solution (in words)” value is listed as “pharmacologically significant amounts”. In data set [5] (during the first 10 hours), the “tacrine release rate from the cationic ion-exchange fiber” value is “about 375 g/h per cm^2”. Besides, the “duration of initial burst of tacrine release” value in [5] (37 C.) lay within 6 to 12 h. In addition, the “tacrine released from the fiber after initial burst” value in data set [5] (after initial burst of about 6-12 h) came out at 50%. In addition, the “steady-state flux of tacrine across human skin” value in [6] (5% solution, pH 7,4, in vitro) was 2,95 g/h per cm^2. Also, the “duration of constant drug delivery from the fiber across skin” value in data set [6] (cationic ion-exchange fiber) was determined as 120 h. The “delivery of tacrine across the skin from the cationic ion-exchange fiber” value in data set [6] (cationic ion-exchange fiber with 3,5% tacrine in HEPES-buffer) is listed as “about 0,003 g/h per cm^2”. For the same compound, the lag-time of permeation result in data set [6] (tacrine solution, human skin, pH 7,4) was “ca. 24 h”. Moreover, the “amount of tacrine delivered to blood through skin (in words)” value in [7] is recorded as “pharmacologically significant amounts”. Also, the “side-effects above clinical concentration (in words)” value in data set [8] (above about 5-30 ng/ml, oral) was “unwanted side-effects are more likely to take place”. In addition, the “elimination half-life T1/2” value in data set [8] (human, in vivo) is recorded as 1,4-3,6 h. The “first-pass metabolism (in words)” value in data set [8] (in vivo) is on record as “extensive first-pass metabolism”. Moreover, the peroral bioavailability in [8] (peroral) was 5-35%. Further, the “solubility in water (in words)” value in data set [9] is on record as “soluble in water”. Also, in data set [9] (physiological pH, assumed), the “charge at physiological pH (in words)” value was “assumed to carry a positive charge”.
